Values joined by “and” are separate entries in the source; they are usually repeats but may differ in a detail not shown here. Equal entries are not always repeated. *1 amine or outer side, *2 acyl side, *3 side chain or, on linkers, in order; H or OH if unused. Where a SMILES comes first, the peptide text is derived from it. The star is where a group is joined. γGlu = O=C(O)[CH](CCC(=O)[*:2])N[*:1]; NHOH = ON*
Key:
SNB-75 [1] = assay: Antitumor activity was evaluated for reduction of growth of SNB-75 cancer cells at a concentration of 100 uM; type: functional, Homo sapiens
Plasmodium falciparum [2] = assay: Antimalarial activity against Plasmodium falciparum D6 (Sierra Leone); moderate activity; type: functional, organism-based
Plasmodium falciparum [3] = assay: Antimalarial activity against Plasmodium falciparum W2 Indochina; moderate activity; type: functional, organism-based
A498 = assay: Antitumor activity was evaluated for reduction of growth of renal cancer (A498) cells at a concentration of 100 uM; type: functional, Homo sapiens
SNB-75 [4] = assay: Antitumor activity was evaluated for reduction of growth of CNS cancer (SNB-75)cells at a concentration of 100 uM; type: functional, Homo sapiens
HL-60 = assay: Antitumor activity was evaluated for reduction of growth of leukemia(HL-60 (TB)) cancer cells at a concentration of 100 uM; type: functional, Homo sapiens
[5] = Antitumor activity was evaluated for reduction of growth of non-small cell lung (NCL-H522) cancer cells at a concentration of 100 uM; type: functional, Homo sapiens, Cancer cell lines

SMILES | Reduction (SNB-75 [1]) [%] | Activity (Plasmodium falciparum [2]) | Activity (Plasmodium falciparum [3]) | Reduction (A498) | Reduction (SNB-75 [4]) [%] | Reduction (HL-60) [%] | Reduction [5] [%]
CN(O)C(=O)CCC(NC(=O)CCC(N)C(=O)O)C(=O)NCC(=O)O (stereo not given) | 40 | Poor or moderate activity | Poor or moderate activity | – | – | – | –
CCOC(=O)CNC(=O)C(CCC(=O)NO)NC(=O)CCC(N)C(=O)O (stereo not given) (γGlu-Glu(NHOH)-Gly-OEt; configuration not given here) | – | – | – | 31% | – | – | –
NC(CCC(=O)NC(CCC(=O)NO)C(=O)NCC(=O)O)C(=O)O (stereo not given) (γGlu-Glu(NHOH)-Gly-OH; configuration not given here) | – | Poor or moderate activity | Poor or moderate activity | 34% and 31% | 31 | 46 | 38

Source: ChEMBL document CHEMBL1131657, “Syntheses and kinetic evaluation of hydroxamate-based peptide inhibitors of glyoxalase I” (Bioorg Med Chem Lett, 1998)
